Measurements reported in publication PMC10455904, “New Phocoenamicin and Maklamicin Analogues from Cultures of Three Marine-Derived Micromonospora Strains” (Marine Drugs, 2023).
In brackets after ≈: the same amount, converted by molar mass. Entries after “also recorded” stand apart in the source; their conditions may differ. Where two headings read alike, the source gives them in different places.

Experiments:
[1] = test system: Enterococcus faecium VANS 144754; assay: Antibacterial MIC assay against E. faecium; type: cell-based
[2] = test system: Neisseria gonorrhoeae ATCC49226; assay: Antibacterial MIC assay against N. gonorrhoeae; type: cell-based
[3] = test system: Mycobacterium tuberculosis H37Ra (ATCC25177); assay: Antibacterial MIC assay against M. tuberculosis H37Ra; type: cell-based; settings: lowest concentration inhibiting ≥90% of growth
[4] = test system: Enterococcus faecalis VANS 144492; assay: Antibacterial MIC assay against E. faecalis; type: cell-based
in vitro = settings: human
[5] = test system: methicillin-resistant Staphylococcus aureus (MRSA) MB5393; assay: Antibacterial MIC assay against MRSA MB5393; type: cell-based
[6] = test system: human liver adenocarcinoma cell line (Hep G2); assay: MTT cytotoxicity assay, Hep G2; settings: for cytotoxicity (in words): Hep G2, in vitro
[7] = MTT cytotoxicity assay, Hep G2; settings: human
[8] = test system: zebrafish eleuthero embryos; assay: Zebrafish eleuthero embryos toxicity assay (immersion); type: in vivo; settings: for developmental abnormalities: 25 μM, 48 h exposure, 5 dpf, representative larvae; for toxicity (lethality and sub-lethal toxicity): 3 dpf larvae, 48 h immersion, 1.6–25 μM, read at 5 dpf
Description: The compounds were dissolved in dimethyl sulfoxide (DMSO) and then diluted in the fish medium (Danieau) in which the 3 dpf zebrafish larvae were swimming for 48 h. The concentrations tested were 1.6, 3.13, 6.25, 12.5 and 25 μM for each of the three compounds. Vehicle-treated Control eleuthero embryos (VHC) were also treated with the same concentration of DMSO (0.5%) in fish medium to compare the possible effects of the compounds.
After the 48 h exposure, corresponding to 5 dpf larvae, the possible mortality, touch-stimulation response and developmental abnormalities were examined using a dissecting microscope coupled with a digital color camera and pictures were captured. Then, the score for the sub-lethal toxicity and lethality was determined for each fish and condition and the mean score was calculated. The assays were independently replicated three times, using 10 embryos for each condition and compound in each assay, and thus the total number of zebrafish embryos used was 480.
Each of the three compounds (3, 4 and 7) was dissolved in 100% dimethyl sulfoxide (DMSO, spectroscopy grade) and diluted in Danieau’s medium to a final concentration of 25 μΜ (0.5% DMSO), followed by ½ serial dilutions to provide five testing concentrations (1.6, 3.13, 6.25, 12.5 and 25 μM).
Next, 3 dpf zebrafish eleuthero embryos randomly selected were immersed in a 24-well plate containing the three compounds in the different testing concentrations (n = 10 larvae per well). At the same time, 10 Vehicle-treated Control eleuthero embryos (VHC) were also treated with 0.5% DMSO, in accordance with the final solvent concentration of testing compounds to compare the possible effects of the compounds. The eleuthero embryos were incubated under a 14/10 h light/dark cycle at 27–28 °C.
After the 48 h exposure, at 5 dpf, the lethality (cardiac rhythm and degraded body were used as clinical criteria) and touch-stimulation response were assessed using non-anesthetized eleuthero embryos, while the possible morphological defects were evaluated after anesthetizing the eleuthero embryos in 0.5 mM tricaine. All observations were performed using an M80 stereo microscope (Leica Microsystems, Danaher Co., Wetzlar, Germany) and pictures were captured with a Leica DFC310 FX digital color camera (Leica Microsystems, Danaher Co., Germany) and stored.
Mean score of lethality and sub-lethal toxicity per condition was calculated as follows: To each adverse effect observed (impaired motility, bad development, body curvature and swim bladder defects) a score of 1 was given (maximum 4 per larva), and a score of 6 to each dead embryo. The mean score was then calculated for all eleuthero embryos (pooled results) examined per condition, as performed before.
The results were obtained from three independent experiments, using ten larvae for each test concentration and compound. Statistical analysis was performed by using GraphPad Prism version 9.0 (GraphPad Software Inc., San Diego, CA, USA) and one-way analysis of variance (ANOVA) followed by Tukey’s multiple comparison test. The criterion for statistical significance was p < 0.05.

[9] = test system: human liver adenocarcinoma cell line (Hep G2)
[10] = Enterococcus faecium, VANS144754
[11] = Neisseria gonorrhoeae, ATCC49226
[12] = Mycobacterium tuberculosis, read-out: MIC
[13] = Enterococcus faecalis, VANS144492
[14] = Enterococcus faecium, VANS144754, E. faecium VANS 144754, lowest concentration inhibiting ≥90% of growth, read-out: MIC
[15] = Neisseria gonorrhoeae, N. gonorrhoeae ATCC49226, lowest concentration inhibiting ≥90% of growth, read-out: MIC
[16] = Enterococcus faecalis, VANS144492, E. faecalis VANS 144492, lowest concentration inhibiting ≥90% of growth, read-out: MIC
[17] = Staphylococcus aureus, MRSA MB5393, lowest concentration inhibiting ≥90% of growth after overnight incubation, read-out: MIC

Compound | MIC [3, 12] [µM] | IC50 (in vitro) [µM] | MIC [1, 14] [µM] | MIC [2, 15] [µM] | MIC [4, 16] [µM] | MIC [5, 17] [µM] | also measured
CC(=O)C(C)(O)C(O)CC1CC23OC(=O)C(=C2O)OC(=O)C2(C)C(C=CC4C(OC5OC(C)C(O)C(OC6OC(C)C(OC(=O)c7c(O)ccc(Cl)c7C)C(O)C6O)C5O)C(C)CC(C)C42)C(C)C=CCC3(C)C=C1CO (stereo not shown) [Compound 1, Phocoenamicin D] | 58 (≈ 64 µg/mL) | > 58.8 |  |  |  |  | MIC [1, 10]: ≥ 116 µM; MIC [2, 11]: > 116 µM; MIC [4, 13]: > 58 µM; MIC ([5]; Staphylococcus aureus, MRSA): 58 µM (≈ 64 µg/mL)
Cc1c(Cl)ccc(O)c1C(=O)O[C@H]1[C@H](O)[C@@H](O)[C@@H](O[C@@H]2[C@@H](O)[C@H](O[C@@H]3[C@H]4C=C[C@H]5[C@H](C)/C=C/C[C@]6(C)C=C(CO)[C@H](C[C@@H](C)O)C[C@]67OC(=O)C(=C7O)C(=O)[C@@]5(C)[C@@H]4[C@@H](C)C[C@H]3C)O[C@H](C)[C@H]2O)O[C@@H]1C [Compound 2, Phocoenamicin E] | 31.5 to 63 (≈ 32 to 64 µg/mL) |  | > 63 | > 126 | > 63 |  | cytotoxicity (in words) [6]: moderate activity; IC50 [7]: 21 µM; MIC ([5]; Staphylococcus aureus, MRSA): 31.5 to 63 µM (≈ 32 to 64 µg/mL)
CC(=O)[C@](C)(O)[C@@H](O)C[C@@H]1C[C@@]23OC(=O)C(=C2O)C(=O)[C@@]2(C)[C@H]4[C@H](C=C[C@H]2[C@H](C)/C=C/C[C@]3(C)C=C1C)[C@@H](O[C@@H]1O[C@H](C)[C@@H](O)[C@H](O[C@H]2O[C@H](C)[C@@H](OC(=O)c3c(O)ccc(Cl)c3C)[C@H](O)[C@H]2O)[C@H]1O)[C@H](C)C[C@@H]4C [Compound 3, phocoenamicin] | 7.5 (≈ 8.04 µg/mL) |  | 3.7 to 7.5 (≈ 3.97 to 8.04 µg/mL) | > 119 | 7.5 (≈ 8.04 µg/mL) | 3.7 (≈ 3.97 µg/mL) | developmental abnormalities [8]: no developmental abnormalities; toxicity (lethality and sub-lethal toxicity) [8]: no toxicity; also recorded: not to be toxic; IC50 [7]: > 58.8 µM
CC(=O)[C@](C)(O)[C@@H](O)C[C@@H]1C[C@@]23OC(=O)C(=C2O)C(=O)[C@@]2(C)[C@H]4[C@H](C=C[C@H]2[C@H](C)/C=C/C[C@]3(C)C=C1CO)[C@@H](O[C@@H]1O[C@H](C)[C@@H](O)[C@H](O[C@H]2O[C@H](C)[C@@H](OC(=O)c3c(O)ccc(Cl)c3C)[C@H](O)[C@H]2O)[C@H]1O)[C@H](C)C[C@@H]4C [Compound 4, phocoenamicin B] | 14.7 (≈ 16 µg/mL) | 17.6 |  |  |  |  | developmental abnormalities [8]: no developmental abnormalities; toxicity (lethality and sub-lethal toxicity) [8]: no toxicity; also recorded: not to be toxic; MIC [1, 10]: ≥ 58.8 µM; MIC [2, 11]: > 118 µM; cytotoxicity (in words) [6]: moderate activity; MIC [4, 13]: > 58.8 µM; MIC ([5]; Staphylococcus aureus, MRSA): 7.4 µM (≈ 8.05 µg/mL)
CC(=O)[C@](C)(O)[C@@H](O)C[C@@H]1C[C@@]23OC(=O)C(=C2O)OC(=O)[C@@]2(C)[C@H]4[C@H](C=C[C@H]2[C@H](C)/C=C/C[C@]3(C)C=C1C)[C@@H](O[C@@H]1O[C@H](C)[C@@H](O)[C@H](O[C@H]2O[C@H](C)[C@@H](OC(=O)c3c(O)ccc(Cl)c3C)[C@H](O)[C@H]2O)[C@H]1O)[C@H](C)C[C@@H]4C [Compound 5, phocoenamicin C] | 29.4 to 58.8 (≈ 32 to 64 µg/mL) |  | > 58.8 | > 58.8 | > 58.8 | 29.4 (≈ 32 µg/mL) | IC50 [7]: > 58.8 µM
CC1=CC2(C)CC=CC(C)C3C=CC4CC(C)CCC4C3(C)C(=O)C3=C(O)C2(CC1CC(C)O)OC3=O (stereo not shown) [Compound 6, Maklamicin B] | 2 (≈ 1.02 µg/mL) | > 58.8 | 1 (≈ 0.509 µg/mL) | > 252 | 62.9 (≈ 32 µg/mL) | 2 (≈ 1.02 µg/mL) | 
C[C@H]1CC[C@@H]2[C@H](C=C[C@H]3[C@H](C)/C=C/C[C@]4(C)C=C(CO)[C@H](C[C@@H](C)O)C[C@]45OC(=O)C(=C5O)C(=O)[C@@]23C)C1 [Compound 7, maklamicin] | 61 (≈ 32 µg/mL) | 40.2 | 1 (≈ 0.525 µg/mL) | > 244 | 1.9 (≈ 0.997 µg/mL) | < 0.5 | toxicity (lethality and sub-lethal toxicity) [8]: no toxicity; also recorded: not to be toxic; cytotoxicity (in words) [9]: moderate activity; MIC ([5]; MRSA MB5393, lowest concentration inhibiting ≥90% of growth after overnight incubation, read-out: MIC): <0.5 µM
COS(C)(=O)=O [MMS, Methyl methanesulfonate, reference compound] |  |  |  |  |  |  | cell death (positive control) ([6]; Hep G2, MTT, 2 mM): 100%
[H]/N=C(/N)N[C@H]1[C@H](O)[C@@H](O)[C@H](O[C@@H]2O[C@@H](C)[C@](O)(C=O)[C@H]2O[C@@H]2O[C@@H](CO)[C@H](O)[C@@H](O)[C@@H]2NC)[C@@H](N/C(N)=N\[H])[C@@H]1O [streptomycin, reference compound] | 2.8 to 5.4 (≈ 1.63 to 3.14 µg/mL) |  |  |  |  |  | MIC [3]: 2.8–5.4 (S) μM
CN[C@H](CC(C)C)C(=O)N[C@H]1C(=O)N[C@@H](CC(N)=O)C(=O)N[C@H]2C(=O)N[C@H]3C(=O)N[C@H](C(=O)N[C@H](C(=O)O)c4cc(O)cc(O)c4-c4cc3ccc4O)[C@H](O)c3ccc(c(Cl)c3)Oc3cc2cc(c3O[C@@H]2O[C@H](CO)[C@@H](O)[C@H](O)[C@H]2O[C@H]2C[C@](C)(N)[C@H](O)[C@H](C)O2)Oc2ccc(cc2Cl)[C@H]1O [vancomycin, reference compound] |  |  | 1.4 (≈ 2.03 µg/mL) |  | 1.4 (≈ 2.03 µg/mL) | 1.4 (≈ 2.03 µg/mL) | MIC ([1]; E. faecium VANS 144754, lowest concentration inhibiting ≥90% of growth): 1.4 (V) μM; MIC ([4]; E. faecalis VANS 144492, lowest concentration inhibiting ≥90% of growth): 1.4 (V) μM; MIC ([5]; MRSA MB5393, lowest concentration inhibiting ≥90% of growth after overnight incubation): 1.4 (V) μM
penicillin [reference compound] |  |  |  |  |  |  | MIC ([2]; N. gonorrhoeae ATCC49226, lowest concentration inhibiting ≥90% of growth): 5.6 (P) μM
